Measured values reported in US20180000085A1, “USE OF PICOLINAMIDE COMPOUNDS WITH FUNGICIDAL ACTIVITY” (DOW AGROSCIENCES LLC, priority 2014, published 2018).

What was measured:
Zymoseptoria tritici = test: Leaf blotch of wheat (SEPTTR) disease control on wheat seedlings; assay type: in vivo; design: key to SEPTTR 1DP, HV activity at 100 ppm (% control rating) / SEPTTR 3DC, HV activity at 100 ppm (% control rating) / SEPTTR disease control, 1DP / SEPTTR disease control, 3DC / SEPTTR 1DP disease control rating, HV activity / SEPTTR 3DC disease control rating, HV activity / SEPTTR 3DC, LV activity at 125.1 g/H (% Control rating) / SEPTTR 1DP, LV activity at 125.1 g/H (% Control rating) / SEPTTR 1DP disease control rating, LV activity at 125.1 g/H / SEPTTR 3DC disease control rating, LV activity at 125.1 g/H / SEPTTR 3DC disease control rating, HV activity at 100 ppm / SEPTTR 1DP disease control rating, HV activity at 100 ppm / HV activity at 100 ppm SEPTTR 3DC (disease control rating) / HV activity at 100 ppm SEPTTR 1DP (disease control rating) / LV activity at 125.1 g/H SEPTTR 1DP (disease control rating) / LV activity at 125.1 g/H SEPTTR 3DC (disease control rating): A: > 80; B: ≤ 80; C: Not Tested; D: No Activity Observed in the Reported Assay; settings: for LV activity at 125.1 g/H SEPTTR 1DP (disease control rating) / LV activity at 125.1 g/H SEPTTR 3DC (disease control rating) / SEPTTR 1DP, LV activity at 125.1 g/H (% Control rating) / SEPTTR 3DC, LV activity at 125.1 g/H (% Control rating): low volume application; for SEPTTR 1DP disease control rating, HV activity / SEPTTR 3DC disease control rating, HV activity: HV application at 100 ppm
Puccinia triticina = test: Wheat brown rust (PUCCRT) disease control on wheat seedlings; assay type: in vivo; design: key to PUCCRT 3DC, HV activity at 100 ppm (% control rating) / PUCCRT disease control, 3DC / PUCCRT 1DP disease control rating, HV activity / PUCCRT 3DC disease control rating, HV activity / PUCCRT 3DC, LV activity at 125.1 g/H (% Control rating) / PUCCRT 1DP, LV activity at 125.1 g/H (% Control rating) / PUCCRT 3DC disease control rating, LV activity at 125.1 g/H / PUCCRT 1DP disease control rating, LV activity at 125.1 g/H / PUCCRT 3DC disease control rating, HV activity at 100 ppm / PUCCRT 1DP disease control rating, HV activity at 100 ppm / HV activity at 100 ppm PUCCRT 3DC (disease control rating) / LV activity at 125.1 g/H PUCCRT 1DP (disease control rating) / LV activity at 125.1 g/H PUCCRT 3DC (disease control rating): A: > 80; B: ≤ 80; C: Not Tested; D: No Activity Observed in the Reported Assay; settings: for LV activity at 125.1 g/H PUCCRT 1DP (disease control rating) / LV activity at 125.1 g/H PUCCRT 3DC (disease control rating) / PUCCRT 1DP, LV activity at 125.1 g/H (% Control rating) / PUCCRT 3DC, LV activity at 125.1 g/H (% Control rating): low volume application; for PUCCRT 1DP disease control rating, HV activity / PUCCRT 3DC disease control rating, HV activity: HV application at 100 ppm
[1] = 1 Day Protectant, wheat leaf blotch
[2] = 3 Day Curative, wheat leaf blotch
[3] = 1 Day Protectant, wheat brown rust
[4] = 3 Day Curative, wheat brown rust
[5] = high volume application, 100 ppm, 1 day protectant
[6] = high volume application, 100 ppm, 3 day curative

COCC(OC(=O)C(C)NC(=O)c1nccc(OC)c1OCOC(C)=O)C(Oc1ccccc1)C(C)C (stereo not drawn) [Cmpd 1090]
LV activity at 125.1 g/H SEPTTR 1DP (disease control rating) (Zymoseptoria tritici; [1]): D
LV activity at 125.1 g/H SEPTTR 3DC (disease control rating) (Zymoseptoria tritici; [2]): D
LV activity at 125.1 g/H PUCCRT 1DP (disease control rating) (Puccinia triticina; [3]): D
LV activity at 125.1 g/H PUCCRT 3DC (disease control rating) (Puccinia triticina; [4]): B (≤ 80)

COc1ccnc(C(=O)NC(C)C(=O)OC(C)C(OCC2CC2)C23CC4CC(CC(C4)C2)C3)c1O (stereo not drawn) [Cmpd 827]
SEPTTR 1DP disease control rating, HV activity at 100 ppm (Zymoseptoria tritici; [5]): B (≤ 80)
SEPTTR 3DC disease control rating, HV activity at 100 ppm (Zymoseptoria tritici; [6]): D
PUCCRT 1DP disease control rating, HV activity at 100 ppm (Puccinia triticina; [5]): A (> 80)
PUCCRT 3DC disease control rating, HV activity at 100 ppm (Puccinia triticina; [6]): D

CCC(CC)[C@@H](Oc1cccc(F)c1)[C@H](C)OC(=O)[C@H](C)NC(=O)c1nccc(OC)c1OCOC(C)=O [Cmpd 586]
SEPTTR 1DP, LV activity at 125.1 g/H (% Control rating) (Zymoseptoria tritici; 1 Day Protectant): B (≤ 80)
SEPTTR 3DC, LV activity at 125.1 g/H (% Control rating) (Zymoseptoria tritici; 3 Day Curative): A (> 80)
PUCCRT 1DP, LV activity at 125.1 g/H (% Control rating) (Puccinia triticina; 1 Day Protectant): A (> 80)
PUCCRT 3DC, LV activity at 125.1 g/H (% Control rating) (Puccinia triticina; 3 Day Curative): A (> 80)

CCC(CC)[C@@H](Oc1ccc(Cl)cc1Cl)[C@H](C)OC(=O)[C@@H](NC(=O)c1nccc(OC)c1OCOC(C)=O)C(C)C [Cmpd 649]
SEPTTR 1DP, LV activity at 125.1 g/H (% Control rating) (Zymoseptoria tritici; 1 Day Protectant): D
SEPTTR 3DC, LV activity at 125.1 g/H (% Control rating) (Zymoseptoria tritici; 3 Day Curative): D
PUCCRT 1DP, LV activity at 125.1 g/H (% Control rating) (Puccinia triticina; 1 Day Protectant): A (> 80)
PUCCRT 3DC, LV activity at 125.1 g/H (% Control rating) (Puccinia triticina; 3 Day Curative): B (≤ 80)

CCC(CC)C(Oc1ccc(-c2ccccc2)cc1)C(C)OC(=O)C(C)NC(=O)c1nccc(OC)c1O (stereo not drawn) [Cmpd 387]
SEPTTR 1DP disease control rating, HV activity (Zymoseptoria tritici; [1]): D
SEPTTR 3DC disease control rating, HV activity (Zymoseptoria tritici; [2]): D
PUCCRT 1DP disease control rating, HV activity (Puccinia triticina; [3]): B (≤ 80)
PUCCRT 3DC disease control rating, HV activity (Puccinia triticina; [4]): D

CC[C@H](Cc1ccc(OC)cc1)[C@@H](Oc1ccccc1)[C@H](C)OC(=O)[C@H](C)NC(=O)c1nccc(OC)c1OCOC(C)=O [Cmpd 470]
SEPTTR 1DP, LV activity at 125.1 g/H (% Control rating) (Zymoseptoria tritici; 1 Day Protectant): A (> 80)
SEPTTR 3DC, LV activity at 125.1 g/H (% Control rating) (Zymoseptoria tritici; 3 Day Curative): A (> 80)
PUCCRT 1DP, LV activity at 125.1 g/H (% Control rating) (Puccinia triticina; 1 Day Protectant): A (> 80)
PUCCRT 3DC, LV activity at 125.1 g/H (% Control rating) (Puccinia triticina; 3 Day Curative): A (> 80)

C=CC(OCCC)C(Oc1ccccc1)C(C)OC(=O)C(C)NC(=O)c1nccc(OC)c1OC(C)=O (stereo not drawn) [Cmpd 456]
SEPTTR 1DP disease control rating, HV activity (Zymoseptoria tritici; [1]): A (> 80)
SEPTTR 3DC disease control rating, HV activity (Zymoseptoria tritici; [2]): A (> 80)
SEPTTR 1DP disease control rating, LV activity (Zymoseptoria tritici; Low volume application at 125.1 g/H, 1 Day Protectant, wheat leaf blotch): A (> 80)
SEPTTR 3DC disease control rating, LV activity (Zymoseptoria tritici; Low volume application at 125.1 g/H, 3 Day Curative, wheat leaf blotch): A (> 80)
PUCCRT 1DP disease control rating, HV activity (Puccinia triticina; [3]): A (> 80)
PUCCRT 3DC disease control rating, HV activity (Puccinia triticina; [4]): A (> 80)
PUCCRT 1DP disease control rating, LV activity (Puccinia triticina; Low volume application at 125.1 g/H, 1 Day Protectant, wheat brown rust): A (> 80)
PUCCRT 3DC disease control rating, LV activity (Puccinia triticina; Low volume application at 125.1 g/H, 3 Day Curative, wheat brown rust): A (> 80)

COCC(OC(=O)C(C)NC(=O)c1nccc(OC)c1OCOC(C)=O)C(Oc1ccccc1)C(C)C (stereo not drawn) [Cmpd 1095]
LV activity at 125.1 g/H SEPTTR 1DP (disease control rating) (Zymoseptoria tritici; [1]): D
LV activity at 125.1 g/H SEPTTR 3DC (disease control rating) (Zymoseptoria tritici; [2]): D
LV activity at 125.1 g/H PUCCRT 1DP (disease control rating) (Puccinia triticina; [3]): B (≤ 80)
LV activity at 125.1 g/H PUCCRT 3DC (disease control rating) (Puccinia triticina; [4]): B (≤ 80)

COc1ccnc(C(=O)N[C@@H](C)C(=O)O[C@@H](C)[C@H](Oc2ccc(Cl)cc2)C(C)C)c1OCOC(=O)C(C)C [Cmpd 573]
SEPTTR 1DP, LV activity at 125.1 g/H (% Control rating) (Zymoseptoria tritici; 1 Day Protectant): A (> 80)
SEPTTR 3DC, LV activity at 125.1 g/H (% Control rating) (Zymoseptoria tritici; 3 Day Curative): A (> 80)
PUCCRT 1DP, LV activity at 125.1 g/H (% Control rating) (Puccinia triticina; 1 Day Protectant): A (> 80)
PUCCRT 3DC, LV activity at 125.1 g/H (% Control rating) (Puccinia triticina; 3 Day Curative): A (> 80)

COc1ccnc(C(=O)NC(C)C(=O)OC(C)C(CC(C)C)Oc2ccc3ccccc3c2)c1OC(C)=O (stereo not drawn) [Cmpd 1099]
LV activity at 125.1 g/H SEPTTR 1DP (disease control rating) (Zymoseptoria tritici; [1]): B (≤ 80)
LV activity at 125.1 g/H SEPTTR 3DC (disease control rating) (Zymoseptoria tritici; [2]): D
LV activity at 125.1 g/H PUCCRT 1DP (disease control rating) (Puccinia triticina; [3]): A (> 80)
LV activity at 125.1 g/H PUCCRT 3DC (disease control rating) (Puccinia triticina; [4]): A (> 80)

COc1ccnc(C(=O)NC(C)C(=O)OC(C)C(Oc2cccc3ccccc23)C(C)C)c1O (stereo not drawn) [Cmpd 434]
SEPTTR 1DP disease control rating, HV activity (Zymoseptoria tritici; [1]): A (> 80)
SEPTTR 3DC disease control rating, HV activity (Zymoseptoria tritici; [2]): D
PUCCRT 1DP disease control rating, HV activity (Puccinia triticina; [3]): A (> 80)
PUCCRT 3DC disease control rating, HV activity (Puccinia triticina; [4]): D
